Data taken from the supplement of paper PMC8671470.

Legend:
Conditions in all cases: 72 h
[1] = system: BV-173
How it was run: (§1)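 Fifteen myeloid leukaemia lines in RPMI 1640 were treated for 72 h at 37 °C and 5% CO2 with five tenfold doses from 1 to 10,000 nM, in duplicate. ATP luminescence was normalised to vehicle and to a positive control at 10 µM, then fitted with a four-parameter log-logistic model. The IC50 came from these fits.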

[2] = system: HEL
How it was run: as §1

[3] = system: HL-60
How it was run: as §1

[4] = system: K-562
How it was run: as §1

[5] = system: KCL-22
How it was run: as §1

[6] = system: KG-1
How it was run: as §1

[7] = system: KU-812
How it was run: as §1

[8] = system: LAMA-84
How it was run: as §1

[9] = system: ML-2
How it was run: as §1

[10] = system: MOLM-13
How it was run: as §1

[11] = system: MV4-11
How it was run: as §1

[12] = system: Mono-Mac-6
How it was run: as §1

[13] = system: NOMO-1
How it was run: as §1

[14] = system: SHI-1
How it was run: as §1

[15] = system: THP-1
How it was run: as §1

[16] = system: BV-173; experiment: cell viability (% survival relative to DMSO control, bortezomib = 0%); higher = less cytotoxic
How it was run: (§2)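 Reported values are percent survival from duplicate wells, averaged. Fifteen myeloid leukaemia cell lines were treated in 384-well plates with compounds at 1, 10, 100, 1000 or 10000 nM for 72 h at 37 °C in 5% CO2. Signals from CellTiter-Glo luminescence were scaled with vehicle as 100% and a 10 µM positive control as 0%.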

[17] = system: HEL; experiment: as above
How it was run: as §2

[18] = system: HL-60; experiment: as above
How it was run: as §2

[19] = system: K-562; experiment: as above
How it was run: as §2

[20] = system: KCL-22; experiment: as above
How it was run: as §2

[21] = system: KG-1; experiment: as above
How it was run: as §2

[22] = system: KU-812; experiment: as above
How it was run: as §2

[23] = system: LAMA-84; experiment: as above
How it was run: as §2

[24] = system: ML-2; experiment: as above
How it was run: as §2

[25] = system: MOLM-13; experiment: as above
How it was run: as §2

[26] = system: MV4-11; experiment: as above
How it was run: as §2

[27] = system: Mono-Mac-6; experiment: as above
How it was run: as §2

[28] = system: NOMO-1; experiment: as above
How it was run: as §2

[29] = system: SHI-1; experiment: as above
How it was run: as §2

[30] = system: THP-1; experiment: as above
How it was run: as §2

CCCCCCCCCCCCC/C=C/[C@@H](O)[C@H](CO)N(C)C [N,N-Dimethylsphingosine]
Conditions | IC50 (cell viability) [nM]
[1] | 1670
[2] | 2980
[3] | > 10000
[4] | > 10000
[5] | 2780
[6] | 3580
[7] | > 10000
[8] | > 10000
[9] | 3460
[10] | > 10000
[11] | > 10000
[12] | > 10000
[13] | > 10000
[14] | > 10000
[15] | > 10000

cell viability [%]
Conditions | 1 nM | 10 nM | 100 nM | 1000 nM | 10000 nM
[16] | 93 | 89.7 | 98.7 | 74.2 | 22.5
[17] | 96.2 | 94.6 | 103 | 96.2 | 0.109
[18] | 90.6 | 84.7 | 100 | 105 | 88.9
[19] | 97.4 | 95.2 | 103 | 104 | 85.6
[20] | 95.8 | 98 | 101 | 91.3 | 1.85
[21] | 92.2 | 96.8 | 101 | 82.7 | 37.4
[22] | 101 | 90.5 | 103 | 102 | 55
[23] | 101 | 96.7 | 106 | 91.3 | 93.3
[24] | 95.1 | 96.8 | 97.7 | 107 | -0.179
[25] | 97.3 | 96.5 | 86.2 | 104 | 71.1
[26] | 94.2 | 102 | 95 | 117 | 95.8
[27] | 95.1 | 91.7 | 97.9 | 89.4 | 70
[28] | 92 | 101 | 100 | 94.1 | 85.8
[29] | 101 | 97.8 | 104 | 97.8 | 83.8
[30] | 97.5 | 100 | 105 | 89.7 | 61.7

Nc1ccn([C@@H]2O[C@H](CO)[C@@H](O)C2(F)F)c(=O)n1 [Gemcitabine]
Conditions | IC50 (cell viability) [nM]
[1] | 2.13
[2] | 3.46
[3] | 8.03
[4] | 16.4
[5] | 6.87
[6] | 6.1
[7] | 3.3
[8] | 8.97
[9] | 3.12
[10] | 3.11
[11] | 1.88
[12] | 3.01
[13] | 5.7
[14] | 4.79
[15] | 6.87

cell viability [%]
Conditions | 1 nM | 10 nM | 100 nM | 1000 nM | 10000 nM
[16] | 83.3 | -0.488 | 0.0466 | 0.053 | -0.136
[17] | 105 | 1.42 | -0.289 | 0.472 | 0.991
[18] | 104 | 38.9 | -0.42 | 0.321 | 0.435
[19] | 92.6 | 62.1 | 37.3 | 29.6 | 28.7
[20] | 104 | 37.7 | 9.55 | 8.82 | 9.48
[21] | 105 | 33.4 | 9.8 | 11.5 | 9.39
[22] | 90.8 | 17.4 | 7.87 | 6.94 | 6.04
[23] | 95.6 | 45.7 | 5.22 | 4.64 | 4.9
[24] | 96.3 | 3.45 | 1.35 | 2.33 | 2.18
[25] | 96.6 | 2.43 | 0.0219 | 0.303 | 0.34
[26] | 78.5 | -0.0353 | -0.464 | 0.602 | 0.268
[27] | 95.1 | 2.34 | 1.01 | 0.852 | 0.24
[28] | 103 | 24.5 | 3.18 | 1.37 | 0.238
[29] | 101 | 25.9 | 34.1 | 0.0306 | -0.276
[30] | 110 | 44.4 | 30.5 | 23.5 | 20.4

Cn1c2cc(S(C)=O)sc2c2cnn(Cc3cccc(N)c3)c(=O)c21 (stereo not given) [TEPP-46]
Conditions | IC50 (cell viability) [nM]
[1] | > 10000
[2] | > 10000
[3] | > 10000
[4] | > 10000
[5] | > 10000
[6] | > 10000
[7] | > 10000
[8] | > 10000
[9] | > 10000
[10] | > 10000
[11] | > 10000
[12] | > 10000
[13] | > 10000
[14] | > 10000
[15] | > 10000

cell viability [%]
Conditions | 1 nM | 10 nM | 100 nM | 1000 nM | 10000 nM
[16] | 108 | 84.1 | 102 | 106 | 76.8
[17] | 118 | 96.2 | 100 | 99.1 | 84
[18] | 104 | 81.9 | 98.8 | 113 | 105
[19] | 112 | 92.1 | 101 | 111 | 81.8
[20] | 109 | 96.8 | 97.2 | 111 | 87.8
[21] | 116 | 99.9 | 102 | 93.5 | 85.1
[22] | 94.7 | 102 | 98.5 | 107 | 74.4
[23] | 106 | 98.2 | 98.2 | 97.4 | 90.6
[24] | 116 | 98.9 | 102 | 108 | 91.7
[25] | 136 | 92.9 | 91.9 | 123 | 94.3
[26] | 105 | 100 | 94.1 | 103 | 69.3
[27] | 102 | 106 | 103 | 102 | 83
[28] | 104 | 92.6 | 102 | 99.8 | 93.3
[29] | 125 | 101 | 105 | 96.5 | 95.3
[30] | 101 | 100 | 97.5 | 104 | 99.7
